Source: patent US20240116985A1, “STAPLED PEPTIDES AND METHODS THEREOF” (priority 2020, published 2024)
pIC50: −log10 of the molar value. Where two headings read alike, the source gives them in different places.

Assays:
[1] = target: T1, full-length beta-Catenin (Uniprot ID P35222) (Homo sapiens, UniProt P35222); test: Fluorescence polarization IC50 (beta-catenin / 5FAM-TCF4 10-53 competition); assay type: binding; conditions: fluorescence polarization; read-out: beta-Catenin FP IC50
T1 construct: 10 nM full-length beta-Catenin (Uniprot ID P35222)
T1 sequence (P35222 1-781): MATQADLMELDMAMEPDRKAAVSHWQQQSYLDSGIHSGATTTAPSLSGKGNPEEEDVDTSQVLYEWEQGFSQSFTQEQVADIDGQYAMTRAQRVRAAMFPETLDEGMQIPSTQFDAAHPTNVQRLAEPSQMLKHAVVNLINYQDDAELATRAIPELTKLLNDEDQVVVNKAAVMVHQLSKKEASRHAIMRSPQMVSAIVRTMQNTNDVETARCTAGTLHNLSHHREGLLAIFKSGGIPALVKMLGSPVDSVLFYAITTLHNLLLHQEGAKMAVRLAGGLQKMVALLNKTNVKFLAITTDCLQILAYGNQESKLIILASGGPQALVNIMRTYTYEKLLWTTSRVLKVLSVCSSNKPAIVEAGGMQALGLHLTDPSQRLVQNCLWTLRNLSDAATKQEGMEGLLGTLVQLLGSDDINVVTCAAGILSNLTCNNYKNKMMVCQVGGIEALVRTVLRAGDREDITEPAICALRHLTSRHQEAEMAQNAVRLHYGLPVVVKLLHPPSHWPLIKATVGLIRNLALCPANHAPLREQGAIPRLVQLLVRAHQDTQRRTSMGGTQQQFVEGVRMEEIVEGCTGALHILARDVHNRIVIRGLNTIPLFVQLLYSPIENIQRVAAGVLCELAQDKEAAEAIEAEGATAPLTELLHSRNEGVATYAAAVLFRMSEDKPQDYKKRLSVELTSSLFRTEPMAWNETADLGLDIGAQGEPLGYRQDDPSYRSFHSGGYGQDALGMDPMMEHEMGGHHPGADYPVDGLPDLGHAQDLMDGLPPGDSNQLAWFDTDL

[2] = target: T2, beta-catenin/TCF4 engagement (Homo sapiens, UniProt P35222); test: Nano-BRET target engagement assay (B-cat-Halo & TCF4-Luc in HEK293 cells); assay type: cell-based; conditions: read-out: NanoBRET Abs IC50
T2 construct: expressed in transfected cells; host or cells: HEK293
T2 sequence (P35222 1-781): T1 sequence (P35222 1-781)

SMILES	pIC50 [1]	pIC50 ([2]; absolute IC50)	pIC50 [2]
CC(=O)N1CCC[C@]12CC=CCCCC1(CCCC=CCCCOC(=O)N3CC[C@@](C(=O)N[C@@H](Cc4ccsc4)C(=O)N[C@@H](Cc4csc5ccccc45)C(=O)N[C@@H](CCC(N)=O)C(N)=O)(C3)NC(=O)[C@H](CC(C)C)NC(=O)[C@H](Cc3ccccc3)NC(=O)[C@H](C)NC(=O)[C@H](C)NC(=O)[C@H](CCN(CC(=O)O)C(=O)Cc3c(F)c(F)c(F)c(F)c3F)NC(=O)[C@H](CC(=O)O)NC1=O)NC(=O)[C@H](CC(C)(C)C)NC(=O)[C@H](CC(=O)O)NC2=O (stereo partly drawn) [I-2251, Ac-PL3-Asp-Npg-B5-Asp-[PfPhAc]GAbu-Ala-Ala-Phe-Leu-PyrS2-3Thi-BztA-Gln-NH2]	7.82	5.19	–
CC(=O)N1CCC[C@]12CC=CCCCC1(CCCC=CCCCOC(=O)N3CC[C@@](C(=O)N[C@@H](Cc4ccccc4Cl)C(=O)N[C@@H](Cc4csc5ccccc45)C(=O)N[C@@H](CO)C(N)=O)(C3)NC(=O)[C@H](CC(C)C)NC(=O)[C@H](Cc3ccccc3)NC(=O)[C@H](C)NC(=O)[C@H](C)NC(=O)[C@H](Cc3ccc(F)c(C(=O)O)c3)NC(=O)[C@H](CC(=O)O)NC1=O)NC(=O)[C@H](CC(C)(C)C)NC(=O)[C@H](CC(=O)O)NC2=O (stereo partly drawn) [I-2205, Ac-PL3-Asp-Npg-B5-Asp-4F3COOHF-Ala-Ala-Phe-Leu-PyrS2-2C1F-BztA-Ser-NH2]	7.74	–	5.49
CC(=O)N1CCC[C@]12CC=CCCCC1(CCCC=CCCCCCC[C@@](C)(C(=O)N[C@@H](Cc3ccccc3)C(=O)N[C@@H](Cc3csc4ccccc34)C(=O)N[C@@H](CCC(N)=O)C(N)=O)NC(=O)[C@H](CC(C)C)NC(=O)[C@H](Cc3ccccc3)NC(=O)[C@H](C)NC(=O)[C@H](C)NC(=O)[C@H](CCC(=O)O)NC(=O)[C@H](CC(=O)O)NC1=O)NC(=O)[C@H](CO)NC(=O)[C@H](CC(=O)O)NC2=O (stereo partly drawn) [I-1528, Ac-PL3-Asp-Ser-B5-Asp-Glu-Ala-Ala-Phe-Leu-S8-Phe-BztA-Gln-NH2]	6.99	4.50	–
CC(=O)N1CCC[C@]12CC=CCCCC1(CCCC=CCCCOC(=O)N3CC[C@@](C(=O)N[C@@H](Cc4ccsc4)C(=O)N[C@@H](Cc4csc5ccccc45)C(=O)N[C@@H](CC(N)=O)C(=O)N[C@@H](C)C(=O)NC(C)(C)C(=O)N[C@@H](C)C(=O)NC(C)(C)C(=O)N[C@@H](C)C(N)=O)(C3)NC(=O)[C@H](CC(C)C)NC(=O)[C@H](Cc3ccccc3)NC(=O)[C@H](C)NC(=O)[C@H](C)NC(=O)[C@H](Cc3cccc(C(=O)O)c3)NC(=O)[C@H](CC(=O)O)NC1=O)NC(=O)[C@H](CC(C)(C)C)NC(=O)[C@H](CC(=O)O)NC2=O (stereo partly drawn) [I-2272, Ac-PL3-Asp-Npg-B5-Asp-3COOHF-Ala-Ala-Phe-Leu-PyrS2-3Thi-BztA-Asn-Ala-Aib-Ala-Aib-Ala-NH2]	7.37	5.52	–
CC(=O)N1CCC[C@]12CC=CCCCC1(CCCC=CCCCCCC[C@@](C)(C(=O)N[C@@H](Cc3ccccc3)C(=O)N[C@@H](Cc3csc4ccccc34)C(=O)N[C@@H](CCC(N)=O)C(N)=O)NC(=O)[C@H](CCC(N)=O)NC(=O)[C@H](Cc3ccccc3)NC(=O)[C@H](C)NC(=O)[C@H](C)NC(=O)[C@H](CCC(=O)O)NC(=O)[C@H](CC(=O)O)NC1=O)NC(=O)[C@H](CC(N)=O)NC(=O)[C@H](CC(=O)O)NC2=O (stereo partly drawn) [I-1532, Ac-PL3-Asp-Asn-B5-Asp-Glu-Ala-Ala-Phe-Gln-S8-Phe-BztA-Gln-NH2]	7.31	< 4.70	–
CC(=O)N1CCC[C@]12CC=CCCCC1(CCCC=CCCCOC(=O)N3CC[C@@](C(=O)N[C@@H](Cc4ccccc4C(F)(F)F)C(=O)N[C@@H](Cc4csc5ccccc45)C(=O)N[C@@H](CCC(N)=O)C(N)=O)(C3)NC(=O)[C@H](CC(C)C)NC(=O)[C@H](Cc3ccccc3)NC(=O)[C@H](C)NC(=O)[C@H](C)NC(=O)[C@H](Cc3ccccc3C(=O)O)NC(=O)[C@H](CC(=O)O)NC1=O)NC(=O)[C@H](CC(C)(C)C)NC(=O)[C@H](CC(=O)O)NC2=O (stereo partly drawn) [I-1656, Ac-PL3-Asp-Npg-B5-Asp-2COOHF-Ala-Ala-Phe-Leu-PyrS2-2F3MeF-BztA-Gln-NH2]	7.70	4.96	–
